Data published in patent US9844566B2, “Pharmaceutical composition for the preparation of infusion solutions of antimicrobial preparations, its production process (variations)” (priority 2011, dated 2017).

Legend:
Assay type in all cases: in vivo
[1] = system: Escherichia coli (ATCC No25922 F-50); assay: Experimental sepsis model in mice, E. coli: survival on the seventh day; conditions: for Mice survival rate on the 7th day of infection, E. coli: mice infected i.v. 8×10^8 CFU/mouse, i.v. treatment daily for 3 days; for Mice survival on the 7th day, absolute values (survival rate/infected animals), E. coli: survivors/infected mice
Method: (§1) Determination of therapeutic efficiency of antimicrobial agents was done on experimental models of sepsis and methods for statistical treatment of the obtained results (χ^2) according to [R19 and R20].
(§2) Microgerms. Staphylococcus aureus (ATCC No 25923 F-49), Escherichia coli (ATCC No25922 F-50), Pseudomonas aeruginosa (ATCC No 27853 F-51), Candida albicans (ATCC No 24433).
(§3) Animals. The experiments were carried out on hybrid mice (CBA×C57Black/6)CBF1 according to the “Regulations for test animals use” (USSR Ministry of health, order supplement No 755 from Dec. 8, 1977).
(§4) Experimental sepsis models. Tested mice were injected intravenously 0.8 ml of P. aeruginosa daily culture suspension with a dosage 5×10^8 CFU/mouse or S. aureus daily culture suspension with a dosage 10^10 CFU/mouse or E. coli daily culture suspension with a dosage 8×10^8 CFU/mouse or Candida albicans daily culture suspension with a dosage 10^10 CFU/mouse. Mice of a control group were injected the 0.9% solution of NaCl or 5% dextrose solution in the volume of 0.8 ml.
(§5) In a day after being infected, during 3 days, the tested mice were daily intravenously injected with the indicated above antimicrobial preparations, dissolved in 0.9% solution of NaCl or in 5% dextrose solution, as well as their solutions prepared based on the pharmaceutical composition (as described hereinabove).
(§6) All beta-lactams were injected daily in the amount of 0.2 mg/mouse, amikacin sulfate in the amount of 2 mg/mouse daily, vancomycin in the amount of 1 mg/mouse daily, fosfomycin in the amount of 2 mg/mouse daily, and voriconazole in the amount of 0.1 mg/mouse contained in 0.5 ml of solution. Following the same order, the control group was injected with 0.9% NaCl solution or 5% dextrose solution, as well as water solutions of the pharmaceutical composition in the volume of 0.5 ml.
(§7) The antibacterial therapy efficiency was evaluated based on the number of surviving mice on the seventh day after being infected [R19, R20].
(§8) The obtained data shown in Tables 3 and 4 reflect the results of three independent experiments (at least 30 test animals were used for research of each inventive pharmaceutical preparation).

[2] = system: Staphylococcus aureus (ATCC No 25923 F-49); assay: Experimental sepsis model in mice, S. aureus: survival on the seventh day; conditions: for Mice survival rate on the 7th day of infection, S. aureus: mice infected i.v. 10^10 CFU/mouse, i.v. treatment daily for 3 days; for Mice survival on the 7th day, absolute values (survival rate/infected animals), S. aureus: survivors/infected mice
Method: as §1, §2, §3, §4, §5, §6, §7, §8

[3] = system: Pseudomonas aeruginosa (ATCC No 27853 F-51); assay: Experimental sepsis model in mice, P. aeruginosa: survival on the seventh day; conditions: for Mice survival rate on the 7th day of infection, P. aeruginosa: mice infected i.v. 5×10^8 CFU/mouse, i.v. treatment daily for 3 days; for Mice survival on the 7th day, absolute values (survival rate/infected animals), P. aeruginosa: survivors/infected mice
Method: as §1, §2, §3, §4, §5, §6, §7, §8

[4] = system: Candida albicans (ATCC No 24433); assay: Experimental mycotic sepsis model in mice, Candida albicans: survival on the seventh day; conditions: for Mice survival rate on the 7th day of infection, Candida albicans: mice infected i.v. 10^10 CFU/mouse, i.v. treatment daily for 3 days; for Mice survival on the 7th day, absolute values (survival rate/infected animals), Candida albicans: survivors/infected mice
Method: as §1, §2, §3, §4, §5, §6, §7, §8

[5] = Table 3 (0.9% NaCl or NaCl:Colloidal silica)
[6] = Table 4 (5% dextrose or Dextrose:Colloidal silica)

Compound: NCC[C@H](O)C(=O)N[C@@H]1C[C@H](N)[C@@H](O[C@H]2O[C@H](CN)[C@@H](O)[C@H](O)[C@H]2O)[C@H](O)[C@H]1O[C@H]1O[C@H](CO)[C@@H](O)[C@H](N)[C@H]1O.O=S(=O)(O)O.O=S(=O)(O)O [Amikacin sulfate/0.9% NaCl solution, amikacin sulfate]
- Mice survival rate on the 7th day of infection, E. coli [1, 5]: 48.3%
- Mice survival on the 7th day, absolute values (survival rate/infected animals), E. coli [1, 5]: (15/31)
- Mice survival rate on the 7th day of infection, E. coli [1, 6]: 46.7%
- Mice survival on the 7th day, absolute values (survival rate/infected animals), E. coli [1, 6]: (14/30)

Compound: CC[C@H]1OC(=O)[C@H](C)[C@@H](O[C@H]2C[C@@](C)(OC)[C@@H](O)[C@H](C)O2)[C@H](C)[C@@H](O[C@@H]2O[C@H](C)C[C@H](N(C)C)[C@H]2O)[C@](C)(O)C[C@@H](C)CN(C)[C@H](C)[C@@H](O)[C@]1(C)O [Azithromycin/0.9% NaCl solution, azithromycin]
- Mice survival rate on the 7th day of infection, S. aureus [2, 5]: 43.3%
- Mice survival on the 7th day, absolute values (survival rate/infected animals), S. aureus [2, 5]: (13/30)
- Mice survival rate on the 7th day of infection, S. aureus [2, 6]: 43.3%
- Mice survival on the 7th day, absolute values (survival rate/infected animals), S. aureus [2, 6]: (13/30)

Compound: CO/N=C(\C(=O)N[C@@H]1C(=O)N2C(C(=O)[O-])=C(C[N+]3(C)CCCC3)CS[C@H]12)c1csc(N)n1 [Cefepime/0.9% NaCl solution, cefepime]
- Mice survival rate on the 7th day of infection, E. coli [1, 5]: 58.1%
- Mice survival on the 7th day, absolute values (survival rate/infected animals), E. coli [1, 5]: (18/31)
- Mice survival rate on the 7th day of infection, E. coli [1, 6]: 54.4%
- Mice survival on the 7th day, absolute values (survival rate/infected animals), E. coli [1, 6]: (17/31)
- Mice survival rate on the 7th day of infection, S. aureus [2, 5]: 46.7%
- Mice survival on the 7th day, absolute values (survival rate/infected animals), S. aureus [2, 5]: (14/30)
- Mice survival rate on the 7th day of infection, S. aureus [2, 6]: 56.7%
- Mice survival on the 7th day, absolute values (survival rate/infected animals), S. aureus [2, 6]: (17/30)
- Mice survival rate on the 7th day of infection, P. aeruginosa [3, 5]: 51.6%
- Mice survival on the 7th day, absolute values (survival rate/infected animals), P. aeruginosa [3, 5]: (16/31)
- Mice survival rate on the 7th day of infection, P. aeruginosa [3, 6]: 50.0%
- Mice survival on the 7th day, absolute values (survival rate/infected animals), P. aeruginosa [3, 6]: (15/30)

Compound: CO/N=C(\C(=O)N[C@@H]1C(=O)N2C(C(=O)O)=C(COC(C)=O)CS[C@H]12)c1csc(N)n1 [Cefotaxime/0.9% NaCl solution, cefotaxime]
- Mice survival rate on the 7th day of infection, E. coli [1, 5]: 37.5%
- Mice survival on the 7th day, absolute values (survival rate/infected animals), E. coli [1, 5]: (12/32)
- Mice survival rate on the 7th day of infection, E. coli [1, 6]: 43.7%
- Mice survival on the 7th day, absolute values (survival rate/infected animals), E. coli [1, 6]: (14/32)
- Mice survival rate on the 7th day of infection, S. aureus [2, 5]: 43.7%
- Mice survival on the 7th day, absolute values (survival rate/infected animals), S. aureus [2, 5]: (14/32)
- Mice survival rate on the 7th day of infection, S. aureus [2, 6]: 42.8%
- Mice survival on the 7th day, absolute values (survival rate/infected animals), S. aureus [2, 6]: (15/35)

Compound: CC(C)(O/N=C(\C(=O)N[C@@H]1C(=O)N2C(C(=O)[O-])=C(C[n+]3ccccc3)CS[C@H]12)c1csc(N)n1)C(=O)O [Ceftazidime/0.9% NaCl solution, ceftazidime]
- Mice survival rate on the 7th day of infection, E. coli [1, 5]: 48.4%
- Mice survival on the 7th day, absolute values (survival rate/infected animals), E. coli [1, 5]: (15/31)
- Mice survival rate on the 7th day of infection, E. coli [1, 6]: 53.3%
- Mice survival on the 7th day, absolute values (survival rate/infected animals), E. coli [1, 6]: (16/30)
- Mice survival rate on the 7th day of infection, S. aureus [2, 5]: 38.7%
- Mice survival on the 7th day, absolute values (survival rate/infected animals), S. aureus [2, 5]: (12/31)
- Mice survival rate on the 7th day of infection, S. aureus [2, 6]: 40.0%
- Mice survival on the 7th day, absolute values (survival rate/infected animals), S. aureus [2, 6]: (12/30)
- Mice survival rate on the 7th day of infection, P. aeruginosa [3, 5]: 46.7%
- Mice survival on the 7th day, absolute values (survival rate/infected animals), P. aeruginosa [3, 5]: (14/30)
- Mice survival rate on the 7th day of infection, P. aeruginosa [3, 6]: 46.8%
- Mice survival on the 7th day, absolute values (survival rate/infected animals), P. aeruginosa [3, 6]: (15/32)

Compound: C[C@@H]1O[C@@H]1P(=O)(O)O [Fosfomycin/0.9% NaCl solution, fosfomycin]
- Mice survival rate on the 7th day of infection, E. coli [1, 5]: 43.3%
- Mice survival on the 7th day, absolute values (survival rate/infected animals), E. coli [1, 5]: (13/30)
- Mice survival rate on the 7th day of infection, E. coli [1, 6]: 46.7%
- Mice survival on the 7th day, absolute values (survival rate/infected animals), E. coli [1, 6]: (14/30)
- Mice survival rate on the 7th day of infection, S. aureus [2, 5]: 36.7%
- Mice survival on the 7th day, absolute values (survival rate/infected animals), S. aureus [2, 5]: (11/30)
- Mice survival rate on the 7th day of infection, S. aureus [2, 6]: 43.7%
- Mice survival on the 7th day, absolute values (survival rate/infected animals), S. aureus [2, 6]: (14/32)
- Mice survival rate on the 7th day of infection, P. aeruginosa [3, 5]: 30.0%
- Mice survival on the 7th day, absolute values (survival rate/infected animals), P. aeruginosa [3, 5]: (9/30)
- Mice survival rate on the 7th day of infection, P. aeruginosa [3, 6]: 35.2%
- Mice survival on the 7th day, absolute values (survival rate/infected animals), P. aeruginosa [3, 6]: (15/34)

Compound: C[C@@H](O)[C@H]1C(=O)N2C(C(=O)O)=C(S[C@@H]3CN[C@H](C(=O)N(C)C)C3)[C@H](C)[C@H]12 [Meropenem/0.9% NaCl solution, meropenem]
- Mice survival rate on the 7th day of infection, E. coli [1, 5]: 73.8%
- Mice survival on the 7th day, absolute values (survival rate/infected animals), E. coli [1, 5]: (31/42)
- Mice survival rate on the 7th day of infection, E. coli [1, 6]: 78.0%
- Mice survival on the 7th day, absolute values (survival rate/infected animals), E. coli [1, 6]: (32/41)
- Mice survival rate on the 7th day of infection, S. aureus [2, 5]: 70.9%
- Mice survival on the 7th day, absolute values (survival rate/infected animals), S. aureus [2, 5]: (22/31)
- Mice survival rate on the 7th day of infection, S. aureus [2, 6]: 73.8%
- Mice survival on the 7th day, absolute values (survival rate/infected animals), S. aureus [2, 6]: (31/42)
- Mice survival rate on the 7th day of infection, P. aeruginosa [3, 5]: 71.8%
- Mice survival on the 7th day, absolute values (survival rate/infected animals), P. aeruginosa [3, 5]: (23/32)
- Mice survival rate on the 7th day of infection, P. aeruginosa [3, 6]: 74.4%
- Mice survival on the 7th day, absolute values (survival rate/infected animals), P. aeruginosa [3, 6]: (32/43)

Compound: CN[C@H](CC(C)C)C(=O)N[C@H]1C(=O)N[C@@H](CC(N)=O)C(=O)N[C@H]2C(=O)N[C@H]3C(=O)N[C@H](C(=O)N[C@H](C(=O)O)c4cc(O)cc(O)c4-c4cc3ccc4O)[C@H](O)c3ccc(c(Cl)c3)Oc3cc2cc(c3O[C@@H]2O[C@H](CO)[C@@H](O)[C@H](O)[C@H]2O[C@H]2C[C@](C)(N)[C@H](O)[C@H](C)O2)Oc2ccc(cc2Cl)[C@H]1O [Vancomycin/0.9% NaCl solution, vancomycin]
- Mice survival rate on the 7th day of infection, S. aureus [2, 5]: 71.4%
- Mice survival on the 7th day, absolute values (survival rate/infected animals), S. aureus [2, 5]: (30/42)
- Mice survival rate on the 7th day of infection, S. aureus [2, 6]: 77.5%
- Mice survival on the 7th day, absolute values (survival rate/infected animals), S. aureus [2, 6]: (31/40)

Compound: aztreonam [Aztreonam/0.9% NaCl solution]
- Mice survival rate on the 7th day of infection, E. coli [1, 5]: 70.0%
- Mice survival on the 7th day, absolute values (survival rate/infected animals), E. coli [1, 5]: (21/30)
- Mice survival rate on the 7th day of infection, P. aeruginosa [3, 5]: 67.7%
- Mice survival on the 7th day, absolute values (survival rate/infected animals), P. aeruginosa [3, 5]: (21/31)

Compound: ceftriaxone [Ceftriaxone/5% dextrose solution]
- Mice survival rate on the 7th day of infection, E. coli [1, 6]: 45.2%
- Mice survival on the 7th day, absolute values (survival rate/infected animals), E. coli [1, 6]: (14/31)
- Mice survival rate on the 7th day of infection, S. aureus [2, 6]: 40.6%
- Mice survival on the 7th day, absolute values (survival rate/infected animals), S. aureus [2, 6]: (13/32)

Compound: voriconazole [Voriconazole/0.9% NaCl solution]
- Mice survival rate on the 7th day of infection, Candida albicans [4, 5]: 45.1%
- Mice survival on the 7th day, absolute values (survival rate/infected animals), Candida albicans [4, 5]: (14/31)
- Mice survival rate on the 7th day of infection, Candida albicans [4, 6]: 46.7%
- Mice survival on the 7th day, absolute values (survival rate/infected animals), Candida albicans [4, 6]: (14/30)
